Tests used:
[1] = cited from earlier work
[2] = PK of TPZ and metabolites SR4317 and SR4330 after intra-arterial injection of TPZ in NS vs HPβCD; format: in vivo, Sprague Dawley rats; conditions: for AUClast, HβC Mean / Cmax, HβC Mean / AUClast, Normal Saline (NS) Mean / Cmax, Normal Saline (NS) Mean: rats
Text: Purpose of the study: To evaluate the pharmacokinetics (PK) of tirapazamine and its metabolites, SR4317 and SR4330 [Graham, M A et al. Cancer Chemother. Pharmacol. (1997) 40 (1): 1-10], after injection of TPZ in 1% HPβCD or normal saline.
Animals: Twenty-four female (12) and male (12) Sprague Daley (SD) rats, weight 200-250 grams, respectively, with femoral artery and jugular vein cannulated, were purchased from, Taconic. Two extra cannulated male and female rates were used to test tolerability with buffer. Each rate was housed individually to safeguard the vessel catheters.
The study parameters are shown in Table 22. began after a 3-day period of adjustment to the animal facility. The study compound was injected into the femoral artery catheter (FAC at 2-1 m (by slow injection. Blood samples were collected from a jugular vein catheter (JVC) at 6 timepoints: 0 (baseline) and after drug administration at 15 and 30 minutes, 1 hr, 2 hr, and 6 hours. The volume of blood sample for each time point was approximately 0.6 mL. Plasma samples were collected in tubes containing sodium heparin as anti-coagulant. Plasma was prepared and frozen in −80° C. Rats were euthanized after the last blood sample (euthanized after the 6 hr time point).
Male rats were around 250 grams, and female 200 grams. There were 8 groups with Groups 1-4 females, and […]. Each group had 3 rats. TPZ was dissolved in NS or […] at a concentration 0.7 mg/mL.
The concentrations of TPZ and its metabolites, SR4317 and SR4330, in rat plasma samples were analyzed using liquid chromatography Tandem Mass Spectrometry (LC-MS) by Primera Analytical Solutions Corp (Princeton, NJ). Standards for TPZ, SR4317 and SR4330 were provided by Teclison, Inc. (Princeton, NJ) for calibration. All analytical data were reviewed for completeness and accuracy. Data transferred manually was cross-checked against source data which was part of the study raw data.
LC-MS analysis was conducted with Sciex 4000 with a Shimadzu LC-30 System.
The concentration data was imported and plotted with SAS program as ADPC (Analysis Dataset of Pharmacokinetics Concentrations) dataset. PK parameters calculated based on ADPC were output as an Analysis Dataset of Pharmacokinetics Parameters (ADPP) dataset.
PK parameters of each profile were calculated by non-compartmental analysis using SAS programming. BLQ (Below the Limit of Quantification) observation prior to the first measurable concentration was imputed as zero, otherwise, the BLQ observation was left as missing.
An apparent first-order terminal elimination rate constant (Kel) was calculated by linear least-squares regression analysis using at least three points (excluding Cmax) in the terminal log-linear phase. Uniform weighting was adopted when performing regression analysis. Linear-up/log-down approach was utilized to calculate AUC.
A linear model was built to evaluate the effect of solution on the PK parameters, adjusting for sex and dose. The model included sex (F, M), solution type (Normal saline, Hydroxypropyl-beta-Cyclodextrin “HP-beta-CD”), and dose (mg) as fixed effects. Sex and solution type are categorical variables (meaning a variable based on a qualitative, not numerical, property) and dose is a continuous variable (meaning a random variable that can take on an infinite number of values within a certain interval that represents measurable data). Separate models were built for each combination of analyte (TPZ, SR4317 and SR4330) and PK parameters (AUClast and Cmax) using the BY statement, which divides the observations from an input data set into groups for processing.
The difference of lease squared means between solution types was estimated. 95% confidence intervals (CI), and p-values for the difference were presented. The significance level (alpha) was set at 0.05, meaning that a p-value less than 0.05 was considered statistically significant.

advanced NSCLC = conditions: cited from earlier work
[3] = intra-arterial TPZ 3.33 mg/kg in HPβCD
[4] = intra-arterial TPZ 3.33 mg/kg in NS
[5] = intra-arterial TPZ 7 mg/kg in HPβCD
[6] = intra-arterial TPZ 7 mg/kg in NS

Nc1n[n+]([O-])c2ccccc2[n+]1[O-] [tirapazamine, 3-amino-1,2,4-benotriazine-1,4-di-N-oxide]
necrosis of the left lobe of the liver (histopathology) ([1]; 3 mg/kg and 6 mg/kg i.v. with transient left HAL, Day 1): 1% | survival after 1 and 7 days ([1]; 3 mg/kg or 6 mg/kg with left HAL): survived | serum alanine transaminase (ALT) level ([1]; Day 1, dose-dependent): elevated on Day 1 | potentially safe doses combined with transient left HAL ([1]; i.v. infusion): ≤ 6 mg/kg | AUClast HβC/NS Ratio (%) ([2]; 3.33 mg/kg): 86.94% | Cmax HβC/NS Ratio (%) ([2]; 3.33 mg/kg): 91.15% | dose proportionality of plasma concentrations ([2]; 3.33 mg/kg vs. 7 mg/kg in either solvent): dose proportional effect was observed | AUClast HβC/NS Ratio (%) ([2]; 7 mg/kg): 94.02% | Cmax HβC/NS Ratio (%) ([2]; 7 mg/kg): 101.02% | plasma concentrations, TPZ in NS versus HPβCD ([2]; FIG. 23): no difference | AUClast, HβC Mean [2, 3]: 781.49 ng·h/mL | Cmax, HβC Mean [2, 3]: 1476.67 ng/mL | AUClast, Normal Saline (NS) Mean [2, 4]: 898.92 ng·h/mL | Cmax, Normal Saline (NS) Mean [2, 4]: 1620.00 ng/mL | AUClast, HβC Mean [2, 5]: 2423.84 ng·h/mL | Cmax, HβC Mean [2, 5]: 4468.33 ng/mL | AUClast, Normal Saline (NS) Mean [2, 6]: 2578.02 ng·h/mL | Cmax, Normal Saline (NS) Mean [2, 6]: 4423.33 ng/mL | removed from treatment as a result of toxicity (advanced NSCLC; arm 1 (with tirapazamine 260-330 mg/m^2) vs arm 2): 26% | patients who developed ≥grade 3 febrile neutropenia (advanced NSCLC; arm 1 vs arm 2): Twenty | survival compared with paclitaxel and carboplatin alone (advanced NSCLC; tirapazamine added to paclitaxel and carboplatin): does not result in improved survival

Reference: patent US20250345356A1, “TIRAPAZAMINE COMPOSITIONS AND METHODS” (priority 2024, published 2025)
